This passage reports DC50 results from patent publication US11420956B2, “Ureas having Androgen Receptor degradation activity and uses thereof” (ACCUTAR BIOTECHNOLOGY INC., priority 2019, dated 2022).

The experiment deals with T1, androgen receptor (AR) (Homo sapiens, UniProt P10275, T878A).
T1 construct: endogenous in cells; host or cells: LNCAP
T1 sequence (P10275 1-920 T878A): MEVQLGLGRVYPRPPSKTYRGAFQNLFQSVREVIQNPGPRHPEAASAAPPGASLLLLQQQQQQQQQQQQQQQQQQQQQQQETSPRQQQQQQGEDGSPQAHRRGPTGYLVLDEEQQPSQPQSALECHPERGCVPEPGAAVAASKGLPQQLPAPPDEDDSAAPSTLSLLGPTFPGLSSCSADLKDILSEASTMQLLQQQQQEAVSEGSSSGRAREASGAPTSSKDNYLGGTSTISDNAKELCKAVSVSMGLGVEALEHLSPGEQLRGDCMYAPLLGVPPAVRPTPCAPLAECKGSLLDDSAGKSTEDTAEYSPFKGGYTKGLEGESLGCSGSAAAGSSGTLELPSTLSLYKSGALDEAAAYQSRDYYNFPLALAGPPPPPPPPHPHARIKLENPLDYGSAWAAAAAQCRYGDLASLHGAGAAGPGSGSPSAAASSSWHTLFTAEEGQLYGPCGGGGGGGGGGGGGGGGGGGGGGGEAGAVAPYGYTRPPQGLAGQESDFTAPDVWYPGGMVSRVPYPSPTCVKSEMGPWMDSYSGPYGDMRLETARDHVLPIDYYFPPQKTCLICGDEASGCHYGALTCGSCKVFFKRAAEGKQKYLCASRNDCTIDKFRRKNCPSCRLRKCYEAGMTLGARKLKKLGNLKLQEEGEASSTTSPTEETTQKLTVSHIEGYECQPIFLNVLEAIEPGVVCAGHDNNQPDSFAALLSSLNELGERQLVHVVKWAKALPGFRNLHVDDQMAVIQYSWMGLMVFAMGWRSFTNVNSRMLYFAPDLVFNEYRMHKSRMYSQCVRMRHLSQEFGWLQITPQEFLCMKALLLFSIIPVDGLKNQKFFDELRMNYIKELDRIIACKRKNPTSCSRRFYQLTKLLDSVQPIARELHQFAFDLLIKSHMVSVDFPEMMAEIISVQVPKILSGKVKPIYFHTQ
Briefly: AR degradation in LNCAP cells (Western blot). Type of experiment: cell-based. The following applies: 24 hours after administration. As to the method:
LNCAP, VCAP and 22Rv1 cells were plated in 24-well plates at 1.5×10E5 cells/well in the RPMI growth medium containing 10% FBS and 1% Penicillin Streptomycin, and then incubated at 37° C. overnight. The following day, the test compound was administered to the cells by using 1000× compound stock solution prepared in DMSO at various concentrations. After administration of the compound, the cells were then incubated at 37° C. for 24 hours. Upon completion, the cells were washed with PBS and protein was collected in Laemmli sample buffer (1×; VWR International). Proteins in cell lysate were separated by SDS-PAGE and transferred to Odyssey nitrocellulose membranes (Licor) with iblot® dry blotting transfer system (ThermoFisher). Nonspecific binding was blocked by incubating membranes with Intercept Blocking Buffer (Licor) for 1 hour at room temperature with gentle shaking. The membranes were then incubated overnight at 4° C. with Primary antibodies rabbit anti-AR (1:1,000, Cell Signaling, 5153) and mouse anti-GAPDH (1:5,000, Santa Cruz Biotechnology, sc-47724) diluted in Intercept Blocking Buffer containing 0.1% Tween 20. After washing 3 times with TBS-T, the membranes were incubated with IRDye® […] goat anti-mouse IgG (1:20,000, Licor) or IRDye® […] goat anti-rabbit IgG (1:20,000, Licor) for 1 hour. After TBS-T washes, membranes were rinsed in TBS and scanned on Odyssey® CLx Imaging System (Licor). The bands were quantified using Image Studio™ Software (Licor).
Tables 5 and 6 summarize the androgen receptor (AR) degradative activity of exemplary compounds in LNCAP, VCAP and 22Rv1 cell lines 24 hours after administration. DC50: compound concentration needed for 50% target protein degradation.
Background: A western blot detects proteins with antibodies after separation by electrophoresis.

In general, DC50 refers to the concentration at which degradation of the target reaches its halfway point. A low value points to degradation at low concentration.

The structures appear in SMILES notation. Where only a bound is given, the exact number is not on record here.

`C[C@@H]1CN(c2ccc(C#N)c(C(F)(F)F)c2)[C@@H](C)CN1C(=O)Nc1ccc(N2CCC(CN3CCN(c4ccc5c(c4)C(=O)N(C4CCC(=O)NC4=O)C5=O)CC3)CC2)c(F)c1` (stereo partly drawn) [Compound 1-45, (2R,5S)-4-(4-cyano-3-(trifluoromethyl)phenyl)-N-(4-(4-((4-(2-(2,6-dioxopiperidin-3-yl)-1,3-dioxoisoindolin-5-yl)piperazin-1-yl)methyl)piperidin-1-yl)-3-fluorophenyl)-2,5-dimethylpiperazine-1-carboxamide]: the DC50 was ≤ 10 nM.

For `C[C@@H]1CN(c2ccc(C#N)c(Cl)c2)[C@@H](C)CN1C(=O)Nc1ccc(N2CCC(CN3CCN(c4ccc5c(c4)CN([C@H]4CCC(=O)NC4=O)C5=O)CC3)CC2)c(F)c1` [Compound 1-46, (2R,5S)-4-(3-chloro-4-cyanophenyl)-N-(4-(4-((4-(2-((S)-2,6-dioxopiperidin-3-yl)-1-oxoisoindolin-5-yl)piperazin-1-yl)methyl)piperidin-1-yl)-3-fluorophenyl)-2,5-dimethylpiperazine-1-carboxamide], the DC50 was ≤ 10 nM.

For `C[C@@H]1CN(c2ccc(C#N)c(Cl)c2)[C@@H](C)CN1C(=O)Nc1ccc(N2CCC(CN3CCN(c4ccc5c(c4)C(=O)N(C4CCC(=O)NC4=O)C5=O)CC3)CC2)c(F)c1` (stereo partly drawn) [Compound 1-47, (2R,5S)-4-(3-chloro-4-cyanophenyl)-N-(4-(4-((4-(2-(2,6-dioxopiperidin-3-yl)-1,3-dioxoisoindolin-5-yl)piperazin-1-yl)methyl)piperidin-1-yl)-3-fluorophenyl)-2,5-dimethylpiperazine-1-carboxamide], the DC50 was ≤ 10 nM.

Regarding `C[C@@H]1CN(c2ccc(C#N)c(C(F)(F)F)c2)[C@@H](C)CN1C(=O)Nc1cnc(N2CCC(CN3CCN(c4ccc5c(c4)CN([C@H]4CCC(=O)NC4=O)C5=O)CC3)CC2)nc1` [Compound 1-49, (2R,5S)-4-(4-cyano-3-(trifluoromethyl)phenyl)-N-(2-(4-((4-(2-((S)-2,6-dioxopiperidin-3-yl)-1-oxoisoindolin-5-yl)piperazin-1-yl)methyl)piperidin-1-yl)pyrimidin-5-yl)-2,5-dimethylpiperazine-1-carboxamide], the DC50 was ≤ 10 nM.

As to `C[C@@H]1CN(c2ccc(C#N)c(C(F)(F)F)c2)[C@@H](C)CN1C(=O)Nc1ccc(N2CCC(CN3CCN(c4ccc5c(c4)CN([C@H]4CCC(=O)NC4=O)C5=O)CC3)CC2)c(F)c1` [Compound 1-50, (2R,5S)-4-(4-cyano-3-(trifluoromethyl)phenyl)-N-(4-(4-((4-(2-((S)-2,6-dioxopiperidin-3-yl)-1-oxoisoindolin-5-yl)piperazin-1-yl)methyl)piperidin-1-yl)-3-fluorophenyl)-2,5-dimethylpiperazine-1-carboxamide], the 50% degradation concentration (DC50) was ≤ 10 nM.

`C[C@@H]1CN(c2ccc(C#N)c(Cl)c2)[C@@H](C)CN1C(=O)Nc1cnc(N2CCC(CN3CCN(c4ccc5c(c4)CN([C@H]4CCC(=O)NC4=O)C5=O)CC3)CC2)nc1` [Compound 1-51, (2R,5S)-4-(3-chloro-4-cyanophenyl)-N-(2-(4-((4-(2-((S)-2,6-dioxopiperidin-3-yl)-1-oxoisoindolin-5-yl)piperazin-1-yl)methyl)piperidin-1-yl)pyrimidin-5-yl)-2,5-dimethylpiperazine-1-carboxamide]: the DC50 is ≤ 10 nM.

For `COc1cc(N2C[C@@H](C)N(C(=O)Nc3cnc(N4CCC(CN5CCN(c6ccc7c(c6)CN([C@H]6CCC(=O)NC6=O)C7=O)CC5)CC4)nc3)C[C@@H]2C)ccc1C#N` [Compound 1-52, (2R,5S)-4-(4-cyano-3-methoxyphenyl)-N-(2-(4-((4-(2-((S)-2,6-dioxopiperidin-3-yl)-1-oxoisoindolin-5-yl)piperazin-1-yl)methyl)piperidin-1-yl)pyrimidin-5-yl)-2,5-dimethylpiperazine-1-carboxamide], the half-maximal degradation concentration (DC50) is ≤ 10 nM.

Take `C[C@@H]1CN(c2ccc(C#N)c(Cl)c2)[C@@H](C)CN1C(=O)Nc1ccc(N2CCC(CN3CCN(c4cc5c(cc4F)C(=O)N([C@H]4CCC(=O)NC4=O)C5=O)CC3)CC2)nc1` [Compound 1-54, (2R,5S)-4-(3-chloro-4-cyanophenyl)-N-(6-(4-((4-(2-(2,6-dioxopiperidin-3-yl)-6-fluoro-1,3-dioxoisoindolin-5-yl)piperazin-1-yl)methyl)piperidin-1-yl)pyridin-3-yl)-2,5-dimethylpiperazine-1-carboxamide]: the DC50 was ≤ 10 nM.

On to `COc1cc(N2C[C@@H](C)N(C(=O)Nc3ccc(N4CCC(CN5CCN(c6cc7c(cc6F)C(=O)N([C@H]6CCC(=O)NC6=O)C7)CC5)CC4)c(F)c3)C[C@@H]2C)ccc1C#N` [Compound 1-55, (2R,5S)-4-(4-cyano-3-methoxyphenyl)-N-(4-(4-((4-(2-((S)-2,6-dioxopiperidin-3-yl)-6-fluoro-1-oxoisoindolin-5-yl)piperazin-1-yl)methyl)piperidin-1-yl)-3-fluorophenyl)-2,5-dimethylpiperazine-1-carboxamide], for which the 50% degradation concentration (DC50) is ≤ 10 nM.

For the molecule `C[C@@H]1CN(c2ccc(C#N)c(Cl)c2)[C@@H](C)CN1C(=O)Nc1ccc(N2CCC(CN3CCN(c4cc5c(cc4F)C(=O)N([C@H]4CCC(=O)NC4=O)C5)CC3)CC2)c(F)c1` [Compound 1-56, (2R,5S)-4-(3-chloro-4-cyanophenyl)-N-(4-(4-((4-(2-((S)-2,6-dioxopiperidin-3-yl)-6-fluoro-1-oxoisoindolin-5-yl)piperazin-1-yl)methyl)piperidin-1-yl)-3-fluorophenyl)-2,5-dimethylpiperazine-1-carboxamide], the 50% degradation concentration (DC50) is ≤ 10 nM.

`C[C@@H]1CN(c2ccc(C#N)c3ncccc23)[C@@H](C)CN1C(=O)Nc1cnc(N2CCC(CN3CCN(c4ccc5c(c4)C(=O)N(C4CCC(=O)NC4=O)C5=O)CC3)CC2)nc1` (stereo partly drawn) [Compound 2-8, (2R,5S)-4-(8-cyanoquinolin-5-yl)-N-(2-(4-((4-(2-(2,6-dioxopiperidin-3-yl)-1,3-dioxoisoindolin-5-yl)piperazin-1-yl)methyl)piperidin-1-yl)pyrimidin-5-yl)-2,5-dimethylpiperazine-1-carboxamide]: the half-maximal degradation concentration (DC50) is > 100 nM.

As to `C[C@@H]1CN(c2ccc(C#N)c3ncccc23)[C@@H](C)CN1C(=O)Nc1ccc(N2CCC(CN3CCN(c4ccc5c(c4)C(=O)N(C4CCC(=O)NC4=O)C5=O)CC3)CC2)nc1` (stereo partly drawn) [Compound 2-9, (2R,5S)-4-(8-cyanoquinolin-5-yl)-N-(6-(4-((4-(2-(2,6-dioxopiperidin-3-yl)-1,3-dioxoisoindolin-5-yl)piperazin-1-yl)methyl)piperidin-1-yl)pyridin-3-yl)-2,5-dimethylpiperazine-1-carboxamide], the 50% degradation concentration (DC50) was > 100 nM.

`C[C@@H]1CN(c2ccc(C#N)c3ncccc23)[C@@H](C)CN1C(=O)Nc1cnc(N2CCC(CN3CCN(c4ccc5c(c4)CN([C@H]4CCC(=O)NC4=O)C5=O)CC3)CC2)nc1` [Compound 2-10, (2R,5S)-4-(8-cyanoquinolin-5-yl)-N-(2-(4-((4-(2-((S)-2,6-dioxopiperidin-3-yl)-1-oxoisoindolin-5-yl)piperazin-1-yl)methy)piperidin-1-yl)pyrimidin-5-yl)-2,5-dimethylpiperazine-1-carboxamide]: the DC50 is > 100 nM.

As to `C[C@@H]1CN(c2ccc(C#N)c3ncccc23)[C@@H](C)CN1C(=O)Nc1ccc(N2CCC(CN3CCN(c4ccc5c(c4)CN([C@H]4CCC(=O)NC4=O)C5=O)CC3)CC2)nc1` [Compound 2-11, (2R,5S)-4-(8-cyanoquinolin-5-yl)-N-(6-(4-((4-(2-((S)-2,6-dioxopiperidin-3-yl)-1-oxoisoindolin-5-yl)piperazin-1-yl)methyl)piperidin-1-yl)pyridin-3-yl)-2,5-dimethylpiperazine-1-carboxamide], the DC50 is > 100 nM.
